Assay results taken from PubChem BioAssay AID2060610 (Molecular Pharmacology Branch, DTP, NCI, 2025).
pIC50: −log10 of the molar value. Several values for one entry are separate records, joined by “and”; a condition that tells them apart may be missing. Equal values may be shown once.

Test system: 616215-338-R-J1-PDC complex spheroids, viability % test/control
Experiment: Anticancer human tumor 616215-338-R-J1-PDC patient-derived colon adenocarcinoma cell line growth inhibition [CLK]
Details: for viability, T/C: stronger effect = lower value
Method in brief: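 Multi-cell-type spheroids combined patient-derived tumor cells with HUVEC endothelial cells and human mesenchymal stem cells. Paired agents were dosed in half-log steps down from about clinical Cmax, or from 10 microM where Cmax was unknown.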

[1] = curve of first compound, second compound 0.0316 µM
[2] = curve of first compound, second compound 0.1 µM
[3] = curve of first compound, second compound 0.316 µM
[4] = curve of first compound, second compound 1 µM
[5] = curve of first compound, second compound 3.16 µM
[6] = curve of first compound, second compound 10 µM
[7] = second compound 0.0316 µM, first compound 0.0316 µM
[8] = second compound 0.0316 µM, first compound 0.1 µM
[9] = second compound 0.0316 µM, first compound 0.316 µM
[10] = second compound 0.0316 µM, first compound 1 µM
[11] = second compound 0.0316 µM, first compound 3.16 µM
[12] = second compound 0.0316 µM, first compound 10 µM
[13] = second compound 0.1 µM, first compound 0.0316 µM
[14] = second compound 0.1 µM, first compound 0.1 µM
[15] = second compound 0.1 µM, first compound 0.316 µM
[16] = second compound 0.1 µM, first compound 1 µM
[17] = second compound 0.1 µM, first compound 3.16 µM
[18] = second compound 0.1 µM, first compound 10 µM
[19] = second compound 0.316 µM, first compound 0.0316 µM
[20] = second compound 0.316 µM, first compound 0.1 µM
[21] = second compound 0.316 µM, first compound 0.316 µM
[22] = second compound 0.316 µM, first compound 1 µM
[23] = second compound 0.316 µM, first compound 3.16 µM
[24] = second compound 0.316 µM, first compound 10 µM
[25] = second compound 1 µM, first compound 0.0316 µM
[26] = second compound 1 µM, first compound 0.1 µM
[27] = second compound 1 µM, first compound 0.316 µM
[28] = second compound 1 µM, first compound 1 µM
[29] = second compound 1 µM, first compound 3.16 µM
[30] = second compound 1 µM, first compound 10 µM
[31] = second compound 3.16 µM, first compound 0.0316 µM
[32] = second compound 3.16 µM, first compound 0.1 µM
[33] = second compound 3.16 µM, first compound 0.316 µM
[34] = second compound 3.16 µM, first compound 1 µM
[35] = second compound 3.16 µM, first compound 3.16 µM
[36] = second compound 3.16 µM, first compound 10 µM
[37] = second compound 10 µM, first compound 0.0316 µM
[38] = second compound 10 µM, first compound 0.1 µM
[39] = second compound 10 µM, first compound 0.316 µM
[40] = second compound 10 µM, first compound 1 µM
[41] = second compound 10 µM, first compound 3.16 µM
[42] = second compound 10 µM, first compound 10 µM
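Also: spheroids exposed to agents for 7 days.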
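For viability, T/C in this document: 100% = DMSO vehicle wells.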

C=C(F)C(=O)N1CCN(c2nc(OCC3CCCN3C)nc3c2CCN(c2cccc4cccc(Cl)c24)C3)CC1CC#N (stereo not drawn) + CNC(=O)c1ccc(Nc2nc(OC3CCCC3)c3c(-c4ccc5nc(C)oc5c4)c[nH]c3n2)c(OC)c1
pIC50 [1]: 5.24 | pIC50 [2]: > 7.50 | pIC50 [3]: > 7.50 | pIC50 [4]: > 7.50 | pIC50 [5]: > 7.50 | pIC50 [6]: > 7.50 | viability, T/C [7]: 95.2% | viability, T/C [8]: 96.9% | viability, T/C [9]: 90.9% | viability, T/C [10]: 104% | viability, T/C [11]: 106% | viability, T/C [12]: 5.6% | viability, T/C [13]: 46% | viability, T/C [14]: 38.4% | viability, T/C [15]: 47.9% | viability, T/C [16]: 46.2% | viability, T/C [17]: 44.9% | viability, T/C [18]: 1.3% | viability, T/C [19]: 48.4% | viability, T/C [20]: 45.2% | viability, T/C [21]: 46.6% | viability, T/C [22]: 40.4% | viability, T/C [23]: 42.1% | viability, T/C [24]: 1.18% | viability, T/C [25]: 49.8% | viability, T/C [26]: 50.5% | viability, T/C [27]: 47.5% | viability, T/C [28]: 42.1% | viability, T/C [29]: 30.7% | viability, T/C [30]: 0.72% | viability, T/C [31]: 42.7% | viability, T/C [32]: 49.1% | viability, T/C [33]: 41.2% | viability, T/C [34]: 31.5% | viability, T/C [35]: 20.8% | viability, T/C [36]: 0.22% | viability, T/C [37]: 45.3% | viability, T/C [38]: 43% | viability, T/C [39]: 42.8% | viability, T/C [40]: 33.2% | viability, T/C [41]: 16.4% | viability, T/C [42]: 0.29%

CCCS(=O)(=O)Nc1ccc(F)c(C(=O)c2c[nH]c3ncc(-c4ccc(Cl)cc4)cc23)c1F + CNC(=O)c1ccc(Nc2nc(OC3CCCC3)c3c(-c4ccc5nc(C)oc5c4)c[nH]c3n2)c(OC)c1
pIC50 [1]: 5.16 | pIC50 [2]: 6.16 | pIC50 [3]: > 7.50 | pIC50 [4]: > 7.50 | pIC50 [5]: > 7.50 | pIC50 [6]: > 7.50 | viability, T/C [7]: 94.6% | viability, T/C [8]: 102% | viability, T/C [9]: 98.9% | viability, T/C [10]: 89.9% | viability, T/C [11]: 93.8% | viability, T/C [12]: 29.6% | viability, T/C [13]: 55% | viability, T/C [14]: 62.2% | viability, T/C [15]: 44.3% | viability, T/C [16]: 53.6% | viability, T/C [17]: 34.6% | viability, T/C [18]: 13% | viability, T/C [19]: 42.4% | viability, T/C [20]: 37.1% | viability, T/C [21]: 39.7% | viability, T/C [22]: 41.5% | viability, T/C [23]: 27% | viability, T/C [24]: 14.8% | viability, T/C [25]: 43.8% | viability, T/C [26]: 38.8% | viability, T/C [27]: 42.3% | viability, T/C [28]: 30.9% | viability, T/C [29]: 27.2% | viability, T/C [30]: 11.6% | viability, T/C [31]: 41.4% | viability, T/C [32]: 44.3% | viability, T/C [33]: 41.4% | viability, T/C [34]: 31.6% | viability, T/C [35]: 22% | viability, T/C [36]: 10.1% | viability, T/C [37]: 40.4% | viability, T/C [38]: 34.4% | viability, T/C [39]: 38.3% | viability, T/C [40]: 27.9% | viability, T/C [41]: 21.4% | viability, T/C [42]: 8.93%

CC(Nc1ccc2c(c1)OCCn1cc(N3C(=O)OCC3C(F)F)nc1-2)C(N)=O (stereo not drawn)
viability, T/C (compound 0.0316 µM): 89.4% and 107% | viability, T/C (compound 0.1 µM): 99.5% and 103% | viability, T/C (compound 0.316 µM): 105% and 108% | viability, T/C (compound 1 µM): 101% and 100% | viability, T/C (compound 3.16 µM): 99.9% and 110% | viability, T/C (compound 10 µM): 90.6% and 100% | pIC50 (curve of compound): < 5.00

CCCS(=O)(=O)Nc1ccc(F)c(C(=O)c2c[nH]c3ncc(-c4ccc(Cl)cc4)cc23)c1F + CN1CCN(c2cc(C(=O)Nc3cc4cc(-c5cnn(C)c5)ccc4cn3)ccn2)CC1
pIC50 [1]: 5.82 | pIC50 [2]: 5.77 | pIC50 [3]: > 7.50 | pIC50 [4]: > 7.50 | pIC50 [5]: > 7.50 | pIC50 [6]: > 7.50 | viability, T/C [7]: 21.5% | viability, T/C [8]: 34.8% | viability, T/C [9]: 99.9% | viability, T/C [10]: 98.2% | viability, T/C [11]: 25.5% | viability, T/C [12]: 0.01% | viability, T/C [13]: 24.7% | viability, T/C [14]: 36.4% | viability, T/C [15]: 105% | viability, T/C [16]: 105% | viability, T/C [17]: 28.9% | viability, T/C [18]: 0.01% | viability, T/C [19]: 10.4% | viability, T/C [20]: 12.8% | viability, T/C [21]: 38.1% | viability, T/C [22]: 29.9% | viability, T/C [23]: 21% | viability, T/C [24]: 0% | viability, T/C [25]: 0.01% | viability, T/C [26]: 0.08% | viability, T/C [27]: 0.17% | viability, T/C [28]: 1.99% | viability, T/C [29]: 0.6% | viability, T/C [30]: 0.01% | viability, T/C [31]: 0.01% | viability, T/C [32]: 0.06% | viability, T/C [33]: 0.14% | viability, T/C [34]: 0.13% | viability, T/C [35]: 0.08% | viability, T/C [36]: 0% | viability, T/C [37]: 0.03% | viability, T/C [38]: 0.07% | viability, T/C [39]: 0.17% | viability, T/C [40]: 0.19% | viability, T/C [41]: 0.25% | viability, T/C [42]: 0%
